The text below walks through data of US11618743B2, “Herbicidal compounds” (SYNGENTA PARTICIPATIONS AG, priority 2017, dated 2023).

Holding throughout (assay): Post-emergence efficacy, Method A
Common to all, as to assay type: in vivo
What all share (settings): Application rate 500 g/Ha, evaluated after 13 days, 100=total damage to plant, 0=no damage

For assay [1], the system named is Euphorbia heterophylla (EPHHL). In outline: (§1)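 Plants grown 14 days in pots of standard soil in a glasshouse (24/16 °C day/night, 14 h light, 65% humidity), then sprayed post-emergence with compound formulated in acetone and IF50 and diluted in 0.25% or 1% Empicol ESC70 + 1% ammonium sulphate. Damage scored after 13 days, 0–100 (100 = total damage).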
Assay [2] relates to Chenopodium album (CHEAL). A digest of the protocol: as §1
For the next assay, the system named is Lolium perenne (LOLPE). A digest of the protocol: as §1
Assay [3] relates to Digitaria sanguinalis (DIGSA). A digest of the protocol: as §1
In the next assay the test system is Eleusine indica (ELEIN). A digest of the protocol:
as §1

In a further assay the test system is Setaria faberi (SETFA). In outline:
as §1

The subject of assay [4] is Amaranthus palmeri (AMAPA). In outline:
as §1

For assay [5], the system named is Ipomoea hederacea (IPOHE). In outline: as §1
Assay [6] has as its system Echinochloa crus-galli (ECHCG). In outline: as §1

`Nc1cc(-c2cc[n+](CCS(=O)(=O)[O-])nc2)nc(N)n1` [Compound A187]: the pest or weed control at 500 g/ha in [1] (Euphorbia heterophylla, post-emergence, 312 h, read-out: Control of weed species after post-emergence application, EPHHL) was 50%; in assay [2] (Chenopodium album, post-emergence, 312 h, read-out: Control of weed species after post-emergence application, CHEAL) it was 40%; with Lolium perenne (LOLPE) (Lolium perenne, post-emergence, 312 h, read-out: Control of weed species after post-emergence application, LOLPE), 10%; in assay [3] (Digitaria sanguinalis, post-emergence, 312 h, read-out: Control of weed species after post-emergence application, DIGSA), 20%; in the assay with Eleusine indica (ELEIN) (Eleusine indica, post-emergence, 312 h, read-out: Control of weed species after post-emergence application, ELEIN) it was 10%; in the assay on Setaria faberi (SETFA) (Setaria faberi, post-emergence, 312 h, read-out: Control of weed species after post-emergence application, SETFA), 10%. Also, the pest or weed control at 500 g/ha in assay [4] (Amaranthus palmeri, post-emergence, 312 h, read-out: Control of weed species after post-emergence application, AMAPA) was 50%; in assay [5] (Ipomoea hederacea, post-emergence, 312 h, read-out: Control of weed species after post-emergence application, IPOHE), 20%; in assay [6] (Echinochloa crus-galli, post-emergence, 312 h, read-out: Control of weed species after post-emergence application, ECHCG) it was 20%.
Regarding `NC(=O)c1cnc(-c2cc[n+](CCC(=O)O)nc2)cn1` [Compound A202, 3-[4-(5-carbamoylpyrazin-2-yl)pyridazin-1-ium-1-yl]propanoic acid 2,2,2-trifluoroacetate], in assay [1], the “Control of weed species after post-emergence application, EPHHL” value (“Control of weed species … EPHHL” for short) amounted to 100. Besides, the “Control of weed species after post-emergence application, CHEAL” value (“Control of weed species … CHEAL” below) in assay [2] is recorded as 90. For the same molecule, the “Control of weed species after post-emergence application, LOLPE” value (shortened to “Control of weed species … LOLPE”) in the assay with Lolium perenne (LOLPE) is on record as 70. In assay [3], the “Control of weed species after post-emergence application, DIGSA” value (“Control of weed species … DIGSA” for short) stood at 60. In addition, in the assay on Eleusine indica (ELEIN), the “Control of weed species after post-emergence application, ELEIN” value (“Control of weed species … ELEIN” below) is 20. In addition, the “Control of weed species after post-emergence application, SETFA” value (shortened to “Control of weed species … SETFA”) in the assay on Setaria faberi (SETFA) was determined as 70. In addition, the “Control of weed species after post-emergence application, AMAPA” value (“Control of weed species … AMAPA” for short) in assay [4] was 100. In assay [5], the “Control of weed species after post-emergence application, IPOHE” value (“Control of weed species … IPOHE” below) is 60. Also, the “Control of weed species after post-emergence application, ECHCG” value (shortened to “Control of weed species … ECHCG”) in assay [6] was determined as 80.
Turning to `CCOP(=O)(CCC[n+]1ccc(-c2ncccn2)cn1)OCC.O=C([O-])C(F)(F)F` [Compound A204], the “Control of weed species … EPHHL” value in assay [1] is listed as 0. For the same molecule, in assay [2], the “Control of weed species … CHEAL” value is recorded as 20. The “Control of weed species … LOLPE” value in the assay with Lolium perenne (LOLPE) is reported as 0. Besides, the “Control of weed species … DIGSA” value in assay [3] is 0. Moreover, the “Control of weed species … ELEIN” value with Eleusine indica (ELEIN) amounted to 0. Besides, the “Control of weed species … SETFA” value in the assay with Setaria faberi (SETFA) is 0. In addition, the “Control of weed species … AMAPA” value in [4] is 10. The “Control of weed species … IPOHE” value in assay [5] worked out at 0. For the same molecule, the “Control of weed species … ECHCG” value in assay [6] worked out at 0.
As to `N[C@@H](C[n+]1ccc(-c2ncccn2)cn1)C(=O)O` [Compound A208, [(1S)-1-carboxy-2-(4-pyrimidin-2-ylpyridazin-1-ium-1-yl)ethyl]ammonium 2,2,2-trifluoroacetate], the “Control of weed species … EPHHL” value in [1] stood at 50. Moreover, the “Control of weed species … CHEAL” value in assay [2] is reported as 80. Moreover, the “Control of weed species … LOLPE” value in the assay on Lolium perenne (LOLPE) was 10. The “Control of weed species … DIGSA” value in assay [3] amounted to 40. Besides, the “Control of weed species … ELEIN” value in the assay with Eleusine indica (ELEIN) stood at 60. Further, in the assay on Setaria faberi (SETFA), the “Control of weed species … SETFA” value is reported as 60. In addition, the “Control of weed species … AMAPA” value in assay [4] was determined as 100. Further, the “Control of weed species … IPOHE” value in [5] worked out at 20. In [6], the “Control of weed species … ECHCG” value was found to be 30.
For `N[C@H](CC[n+]1ccc(-c2ccncn2)cn1)C(=O)O` [Compound A235], the “Control of weed species … EPHHL” value in assay [1] worked out at 20. Also, the “Control of weed species … CHEAL” value in [2] was 40. Besides, the “Control of weed species … LOLPE” value in the assay on Lolium perenne (LOLPE) is reported as 0. Moreover, the “Control of weed species … DIGSA” value in assay [3] stood at 40. In addition, the “Control of weed species … ELEIN” value with Eleusine indica (ELEIN) was found to be 10. In addition, the “Control of weed species … SETFA” value in the assay with Setaria faberi (SETFA) is 30. Besides, in assay [4], the “Control of weed species … AMAPA” value came out at 10. For the same molecule, the “Control of weed species … IPOHE” value in assay [5] came out at 20. Moreover, the “Control of weed species … ECHCG” value in assay [6] is given as 30.
For the molecule `O=P([O-])(O)C[n+]1ccc(-c2ccncn2)cn1` [Compound A236], the “Control of weed species … EPHHL” value in assay [1] turned out to be 30. The “Control of weed species … CHEAL” value in [2] was determined as 20. Besides, the “Control of weed species … LOLPE” value in the assay on Lolium perenne (LOLPE) stood at 0. The “Control of weed species … DIGSA” value in [3] came to 80. For the same molecule, the “Control of weed species … ELEIN” value in the assay with Eleusine indica (ELEIN) worked out at 10. Besides, the “Control of weed species … SETFA” value in the assay with Setaria faberi (SETFA) is reported as 30. Also, the “Control of weed species … AMAPA” value in [4] stood at 90. For the same molecule, in assay [5], the “Control of weed species … IPOHE” value was 40. The “Control of weed species … ECHCG” value in assay [6] is on record as 50.
Turning to `COP(=O)(C[n+]1ccc(-c2ccncn2)cn1)OC.O=S(=O)([O-])C(F)(F)F` [Compound A237], the “Control of weed species … EPHHL” value in assay [1] came out at 0. Moreover, the “Control of weed species … CHEAL” value in [2] came to 10. Further, in the assay with Lolium perenne (LOLPE), the “Control of weed species … LOLPE” value is on record as 10. Further, the “Control of weed species … DIGSA” value in [3] is 50. In the assay on Eleusine indica (ELEIN), the “Control of weed species … ELEIN” value is recorded as 70. In the assay with Setaria faberi (SETFA), the “Control of weed species … SETFA” value was found to be 20. Besides, in [4], the “Control of weed species … AMAPA” value is given as 60. Besides, the “Control of weed species … IPOHE” value in assay [5] was determined as 50. The “Control of weed species … ECHCG” value in [6] is listed as 10.
Turning to `COP(=O)(C[n+]1ccc(-c2ncccn2)cn1)OC.O=S(=O)([O-])C(F)(F)F` [Compound A238, 1-(dimethoxyphosphorylmethyl)-4-pyrimidin-2-yl-pyridazin-1-ium trifluoromethanesulfonate], the “Control of weed species … EPHHL” value in assay [1] is given as 50. In addition, the “Control of weed species … CHEAL” value in assay [2] is 20. The “Control of weed species … LOLPE” value in the assay on Lolium perenne (LOLPE) is 10. For the same molecule, in assay [3], the “Control of weed species … DIGSA” value is listed as 50. In addition, in the assay on Eleusine indica (ELEIN), the “Control of weed species … ELEIN” value amounted to 30. Further, the “Control of weed species … SETFA” value with Setaria faberi (SETFA) was 50. In addition, the “Control of weed species … AMAPA” value in [4] is reported as 50. The “Control of weed species … IPOHE” value in assay [5] turned out to be 40. Moreover, in assay [6], the “Control of weed species … ECHCG” value is 40.
